One test has as its target T1, Interstitial collagenase (Homo sapiens, UniProt P03956).
T1 sequence (P03956 whole entry): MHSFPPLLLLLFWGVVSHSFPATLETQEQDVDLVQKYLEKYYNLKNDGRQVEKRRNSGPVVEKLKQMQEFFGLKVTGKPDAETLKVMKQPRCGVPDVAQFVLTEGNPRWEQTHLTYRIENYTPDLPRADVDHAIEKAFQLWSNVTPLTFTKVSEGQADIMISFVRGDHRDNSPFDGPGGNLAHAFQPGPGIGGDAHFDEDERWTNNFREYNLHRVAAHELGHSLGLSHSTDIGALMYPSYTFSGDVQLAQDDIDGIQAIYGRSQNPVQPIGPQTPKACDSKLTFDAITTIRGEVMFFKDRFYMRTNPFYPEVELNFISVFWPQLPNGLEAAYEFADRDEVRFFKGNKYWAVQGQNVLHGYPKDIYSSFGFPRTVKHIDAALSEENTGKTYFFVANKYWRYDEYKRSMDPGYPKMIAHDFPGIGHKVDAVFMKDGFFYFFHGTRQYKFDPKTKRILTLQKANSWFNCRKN
Description: Inhibitory activity against matrix metallopeptidase 1.

Test [1] has as its target Disintegrin and metalloproteinase domain-containing protein 17 (Homo sapiens, UniProt P78536). The test can be described thus: Inhibitory activity against TACE[ADAM metallopeptidase domain 17] in isolated enzyme assay.
The next test addresses Collagenase 3 (Homo sapiens, UniProt P45452). The test can be described thus: Inhibitory activity against matrix metallopeptidase 13.
The test system of another test is THP-1. The test can be described thus: Percentage inhibition of TNF production in LPS-stimulated THP-1 cells. Type of test: functional, Homo sapiens.

Disintegrin and metalloproteinase domain-containing protein 17, sequence (P78536 whole entry, the tested form may be a part): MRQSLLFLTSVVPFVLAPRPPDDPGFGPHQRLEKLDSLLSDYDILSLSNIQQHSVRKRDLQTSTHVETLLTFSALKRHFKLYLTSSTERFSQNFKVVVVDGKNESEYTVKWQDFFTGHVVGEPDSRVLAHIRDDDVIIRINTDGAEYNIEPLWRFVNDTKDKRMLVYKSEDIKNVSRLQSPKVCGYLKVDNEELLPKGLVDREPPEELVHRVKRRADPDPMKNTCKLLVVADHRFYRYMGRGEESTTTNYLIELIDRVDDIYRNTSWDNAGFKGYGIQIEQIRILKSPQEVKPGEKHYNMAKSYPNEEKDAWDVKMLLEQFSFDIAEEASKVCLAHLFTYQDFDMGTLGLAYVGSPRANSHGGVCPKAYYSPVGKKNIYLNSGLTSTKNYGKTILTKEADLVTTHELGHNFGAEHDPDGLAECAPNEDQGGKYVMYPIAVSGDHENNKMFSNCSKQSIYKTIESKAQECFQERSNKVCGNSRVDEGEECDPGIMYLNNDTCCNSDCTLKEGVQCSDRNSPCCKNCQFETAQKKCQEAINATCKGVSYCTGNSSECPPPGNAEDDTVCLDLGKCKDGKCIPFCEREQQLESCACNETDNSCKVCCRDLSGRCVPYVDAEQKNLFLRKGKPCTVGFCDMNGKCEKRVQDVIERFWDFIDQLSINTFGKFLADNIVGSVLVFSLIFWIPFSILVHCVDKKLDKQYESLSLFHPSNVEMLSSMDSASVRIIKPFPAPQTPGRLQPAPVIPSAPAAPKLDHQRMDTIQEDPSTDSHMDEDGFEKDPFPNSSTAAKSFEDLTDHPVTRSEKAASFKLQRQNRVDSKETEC

By IC50 is commonly meant the concentration that gives 50% inhibition. A lower IC50 goes with higher potency. `CC#CCOc1ccc(S(=O)(=O)N2CCSC(C)(C)C2C(=O)NO)cc1` (configuration not stated) showed an IC50 against Interstitial collagenase of 7 nM. `CC#CCOc1ccc(S(=O)(=O)N2CCSCC2C(=O)NO)cc1` (configuration not stated) yielded an IC50 in test [1] of 3 nM.

As a reminder, the Inhibition is the change of the read-out against control, counted positive when it falls. `CC#CCOc1ccc(S(=O)(=O)N2CCNCC2C(=O)NO)cc1` (configuration not stated): on Collagenase 3, the IC50 turned out to be 8 nM. In the test on THP-1, the Inhibition worked out at 71%.

`CC#CCOc1ccc(S(=O)(=O)N2CCN(C(=O)OC)CC2C(=O)NO)cc1` (configuration not stated): at Collagenase 3, the IC50 came out at 9 nM. The compound `CC#CCOc1ccc(S(=O)(=O)N2CCN(S(C)(=O)=O)CC2C(=O)NO)cc1` (configuration not stated) registered a concentration for half-maximal inhibition (IC50) on Collagenase 3 of 6 nM. Compound `CC#CCOc1ccc(S(=O)(=O)N2CCOCC2C(=O)NO)cc1` (configuration not stated) came in with an IC50 in test [1] of 5 nM.

These data come from ChEMBL document CHEMBL1141066, “Acetylenic TACE inhibitors. Part 2: SAR of six-membered cyclic sulfonamide hydroxamates” (Bioorg Med Chem Lett, 2005).
